Patent US20230090552A1, “ALK5 INHIBITOR CONJUGATES AND USES THEREOF” (Synthis Therapeutics, Inc., priority 2020, published 2023)

Assays:
ALK5 = target: T1, ALK5 (Homo sapiens, UniProt P36897); experiment: recombinant kinase assays (IC50 and Ki); format: biochemical; conditions: versus Compound N
T1 sequence (P36897 34-503): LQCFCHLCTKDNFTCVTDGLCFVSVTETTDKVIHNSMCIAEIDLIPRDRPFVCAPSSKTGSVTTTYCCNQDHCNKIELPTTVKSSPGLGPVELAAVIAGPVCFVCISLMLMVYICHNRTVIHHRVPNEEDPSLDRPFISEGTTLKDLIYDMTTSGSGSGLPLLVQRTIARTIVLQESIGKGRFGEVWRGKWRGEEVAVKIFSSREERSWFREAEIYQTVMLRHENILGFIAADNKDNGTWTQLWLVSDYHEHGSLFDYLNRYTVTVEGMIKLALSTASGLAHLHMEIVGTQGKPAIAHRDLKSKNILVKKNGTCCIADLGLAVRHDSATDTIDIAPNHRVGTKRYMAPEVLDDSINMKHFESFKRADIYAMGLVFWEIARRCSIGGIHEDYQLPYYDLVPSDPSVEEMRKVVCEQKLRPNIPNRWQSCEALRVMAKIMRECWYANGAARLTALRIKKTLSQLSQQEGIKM
Description: Compound N was compared to Compound C in a number of in vitro assays.

IPF disease progression = conditions: patients with mild-moderate disease; cited from earlier work

fold more potent than Compound N in the kinase assays (ALK5) [fold] | Structure (SMILES) | reduced risk of IPF disease progression (IPF disease progression) [%]
10 | CNCCOc1ccc(-c2cc(-c3c[nH]nc3-c3cccc(C)n3)ccn2)cc1 [Compound C, N-methyl-2-(4-(4-(3-(6-methylpyridin-2-yl)-1H-pyrazol-4-yl)pyridin-2-yl)phenoxy)ethan-1-amine] | –
– | COC(=O)c1ccc2c(c1)NC(=O)/C2=C(\Nc1ccc(N(C)C(=O)CN2CCN(C)CC2)cc1)c1ccccc1 [nintedanib] | 50
– | Cc1ccc(=O)n(-c2ccccc2)c1 [pirfenidone] | 50
